Experiments:
[1] = target: T1, purified Human plasma kallikrein (Homo sapiens, UniProt P03952); experiment: Kallikrein Assay; type: biochemical; settings: purified Human plasma kallikrein 0.5 nM; substrate Acetyl-K-P-R-AFC; 50 mM HEPES pH 7.4; Ki from IC50 by Cheng Prusoff equation; read-out: Hu P. Kallikrein
T1 construct: yields a heavy chain (371 amino acids) and a light chain (248 amino acids); purchased Enzyme Research Laboratories
Procedure: The effectiveness of a compound of the present invention as an inhibitor of Kallikrein can be determined using a relevant purified serine protease, and an appropriate synthetic substrate. The rate of hydrolysis of the chromogenic or fluorogenic substrate by the relevant serine protease was measured both in the absence and presence of compounds of the present invention. Assays were conducted at room temperature or at 37° C. […] A decrease in the rate of fluorescence change in the presence of inhibitor is indicative of enzyme inhibition. Such methods are known to one skilled in the art. The results of this assay are expressed as the inhibitory constant, Ki. Kallikrein determinations were made in 50 mM HEPES buffer at pH 7.4 containing 150 mM NaCl, 5 mM CaCl2, and 0.1% PEG 8000 (polyethylene glycol; Fisher Scientific). Determinations were made using purified Human plasma kallikrein at a final concentration of 0.5 nM (Enzyme Research Laboratories) and the synthetic substrate, Acetyl-K—P-R-AFC (Sigma # C6608) at a concentration of […]. Activity assays were performed by diluting a stock solution of substrate at least tenfold to a final concentration ≤0.2 Km into a solution containing enzyme or enzyme equilibrated with inhibitor. Times required to achieve equilibration between enzyme and inhibitor were determined in control experiments. The reactions were performed under linear progress curve conditions and fluorescence increase measured at 405 Ex/510 Em nm. Values were converted to percent inhibition of the control reaction (after subtracting 100% Inhibition value). IC50 was determined by inflection point from a four parameter logistic curve fit. Ki was calculated using the Cheng Prusoff equation, Ki=IC50/(1+([S]/Km)). The activities shown by this assay indicate that the compounds of the invention may be therapeutically useful for treating or preventing various cardiovascular and/or cerebrovascular thromboembolic conditions in patients suffering from unstable angina, acute coronary syndrome, refractory angina, myocardial infarction, transient ischemic attacks, atrial fibrillation, stroke such as thrombotic stroke or embolic stroke, venous thrombosis, coronary and cerebral arterial thrombosis, cerebral and pulmonary embolism, atherosclerosis, deep vein thrombosis, disseminated intravascular coagulation, and reocclusion or restenosis of recanalized vessels.

[2] = target: T2, purified human Factor XIa (Homo sapiens, UniProt P03951); experiment: Factor XIa Assay; type: biochemical; settings: purified human Factor XIa 40 pM; substrate Z-Gly-Pro-Arg-AFC 100 μM; 50 mM HEPES pH 7.4; read-out: Hu FXIa Ki
T2 construct: purified human Factor XIa; purchased Sekisui Diagnostics
T2 sequence (P03951 388-625 limits assumed): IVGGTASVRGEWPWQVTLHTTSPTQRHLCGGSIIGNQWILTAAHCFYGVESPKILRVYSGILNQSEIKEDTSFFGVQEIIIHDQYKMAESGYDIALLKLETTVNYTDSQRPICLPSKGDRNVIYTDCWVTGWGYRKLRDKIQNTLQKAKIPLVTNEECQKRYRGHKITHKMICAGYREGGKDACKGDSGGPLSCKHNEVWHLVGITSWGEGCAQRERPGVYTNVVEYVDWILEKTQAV
T2 sequence (P03951 19-387 partner limits assumed): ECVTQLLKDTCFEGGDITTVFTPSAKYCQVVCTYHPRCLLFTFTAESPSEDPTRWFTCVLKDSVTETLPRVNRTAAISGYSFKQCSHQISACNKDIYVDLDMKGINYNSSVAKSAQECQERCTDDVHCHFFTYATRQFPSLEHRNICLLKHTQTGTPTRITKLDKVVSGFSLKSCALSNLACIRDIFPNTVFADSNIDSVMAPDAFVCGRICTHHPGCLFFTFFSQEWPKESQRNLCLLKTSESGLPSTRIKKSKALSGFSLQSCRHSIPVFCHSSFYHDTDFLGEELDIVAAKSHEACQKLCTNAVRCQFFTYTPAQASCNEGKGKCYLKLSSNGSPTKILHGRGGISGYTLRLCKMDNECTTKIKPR
Summary of the method: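 Purified human FXIa at 40 pM, in 50 mM HEPES pH 7.4 with 150 mM NaCl, 5 mM CaCl2 and 0.1% PEG 8000, was preequilibrated with inhibitor. Initial hydrolysis rates of Z-Gly-Pro-Arg-AFC were then measured at room temperature or 37 °C. Ki was derived from Vo/Vi = 1 + [I]/Ki, assuming competitive inhibition.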

T1 sequence (P03952 391-638 limits assumed): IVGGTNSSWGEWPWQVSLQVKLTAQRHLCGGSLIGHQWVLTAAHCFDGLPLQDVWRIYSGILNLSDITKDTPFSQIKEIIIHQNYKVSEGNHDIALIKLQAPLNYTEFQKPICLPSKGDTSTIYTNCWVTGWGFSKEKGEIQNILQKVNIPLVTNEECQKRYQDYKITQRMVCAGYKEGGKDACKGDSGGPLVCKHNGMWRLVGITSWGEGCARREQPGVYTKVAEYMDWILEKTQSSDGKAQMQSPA
T1 sequence (P03952 20-390 partner limits assumed): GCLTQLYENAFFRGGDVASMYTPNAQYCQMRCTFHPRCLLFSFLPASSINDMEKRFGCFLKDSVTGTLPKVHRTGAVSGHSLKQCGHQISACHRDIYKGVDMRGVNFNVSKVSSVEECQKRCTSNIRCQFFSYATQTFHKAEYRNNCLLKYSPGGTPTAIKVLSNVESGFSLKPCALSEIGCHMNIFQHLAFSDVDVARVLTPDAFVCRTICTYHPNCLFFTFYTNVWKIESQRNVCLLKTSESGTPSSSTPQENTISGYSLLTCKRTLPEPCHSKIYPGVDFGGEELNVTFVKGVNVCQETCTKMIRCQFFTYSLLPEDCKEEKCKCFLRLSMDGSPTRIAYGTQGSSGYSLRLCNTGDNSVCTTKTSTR

**Q.** For `COC(=O)Nc1ccc2c(c1)NC(=O)CC/C=C/C[C@@H](C(=O)N1CCC[C@@]3(C1)OC(=O)Nc1ccc(Cl)c(F)c13)c1cc-2ccn1` [Example 21a, methyl ((R,E)-10-((R)-6-chloro-5-fluoro-2-oxo-1,2-dihydrospiro[benzo[d][1,3]oxazine-4,3′-piperidine]-1′-carbonyl)-4-oxo-3-aza-1(4,2)-pyridina-2(1,2)-benzenacyclodecaphanen-2^4-yl)carbamate], which Ki [1] is on record?
**A.** Its Ki is 17 nM.

**Q.** And the Ki [2]?
**A.** The Ki was 59.4 nM.

**Q.** What does the source list for `CCOC(=O)C1CCCCC(C(=O)N2CCC[C@@]3(C2)OC(=O)Nc2ccc(Cl)c(F)c23)c2nc(c[nH]2)-c2ccc(NC(=O)OC)cc2N1` (mixture of isomers) [Example 32, ethyl (Z)-9-((R)-6-chloro-5-fluoro-2-oxo-1,2-dihydrospiro[benzo[d][1,3]oxazine-4,3′-piperidine]-1′-carbonyl)-2^4-((methoxycarbonyl)amino)-1^1H-3-aza-1(4,2)-imidazola-2(1,2)-benzenacyclononaphane-4-carboxylate]?
**A.** Ki [1]: 15.5 nM; Ki [2]: 4.94 nM

**Q.** How did the Ki [1] turn out when `COC(=O)Nc1ccc2c(c1)NC(=O)[C@H](C)CCC[C@@H](C(=O)N1CCC[C@@]3(C1)OC(=O)Nc1ccc(Cl)c(F)c13)C1=NC=C2O1` [Example 14a, methyl ((5R,9R)-9-((R)-6-chloro-5-fluoro-2-oxo-1,2-dihydrospiro[benzo[d][1,3]oxazine-4,3′-piperidine]-1′-carbonyl)-5-methyl-4-oxo-3-aza-1(5,2)-oxazola-2(1,2)-benzenacyclononaphane-2^4-yl)carbamate] was run?
**A.** The Ki was 5.5 nM.

**Q.** What about the Ki [2] of the same compound?
**A.** Its Ki is 13.4 nM.

**Q.** For `COC(=O)Nc1ccc2c(c1)NC(=O)[C@H](C)CCCC(C(=O)N1CC[C@@]3(C1)OC(=O)Nc1ccc(Cl)c(F)c13)c1nc-2c(Cl)[nH]1` (mixture of isomers) [Example 11], which Ki [1] is on record?
**A.** The Ki was 1.32 nM.

**Q.** What about the Ki [2] of the same compound?
**A.** The Ki was 0.74 nM.

**Q.** For `CCOC(=O)C1CCCCC(C(=O)N2CCC[C@@]3(C2)OC(=O)Nc2ccc(Cl)c(F)c23)c2nc(c[nH]2)-c2ccc(NC(=O)OC)cc2N1` (single isomer, unassigned) [Example 32b], which Ki [1] is on record?
**A.** Its Ki is 1.42 nM.

**Q.** What about the Ki [2] of the same compound?
**A.** The Ki was 0.62 nM.

**Q.** With `COC(=O)Nc1ccc2c(c1)NC(=O)CCCC[C@@H](C(=O)N1CCC[C@@]3(C1)OC(=O)Nc1ccc(Cl)c(F)c13)c1nc-2c(C)[nH]1` (single isomer, unassigned) [Example 12b] as the compound, how does the Ki [1] read?
**A.** Its Ki is 1.29 nM.

**Q.** What about the Ki [2] of the same compound?
**A.** Its Ki is 0.93 nM.

**Q.** Which Ki [1] does the source give for `COC(=O)Nc1ccc2c(c1)NC(=O)CCCCC(C(=O)N1CCC[C@@]3(C1)OC(=O)Nc1ccc(Cl)c(F)c13)c1nc-2c(Cl)[nH]1` (mixture of isomers) [Example 8, methyl ((Z)-1^5-chloro-9-((R)-6-chloro-5-fluoro-2-oxo-1,2-dihydrospiro[benzo[d][1,3]oxazine-4,3′-piperidine]-1′-carbonyl)-4-oxo-1^1H-3-aza-1(4,2)-imidazola-2(1,2)-benzenacyclononaphane-2^4-yl)carbamate] here?
**A.** The Ki was 0.56 nM.

**Q.** What about the Ki [2] of the same compound?
**A.** The Ki was 0.25 nM.

**Q.** How did the Ki [1] turn out when `COC(=O)Nc1ccc2c(c1)NC(=O)CCCC[C@@H](C(=O)N1CC[C@@]3(C1)OC(=O)Nc1ccc(Cl)cc13)c1cc-2ccn1` [Example 17a, methyl ((R)-9-((R)-6-chloro-2-oxo-1,2-dihydrospiro[benzo[d][1,3]oxazine-4,3′-pyrrolidine]-1′-carbonyl)-4-oxo-3-aza-1(4,2)-pyridina-2(1,2)-benzenacyclononaphane-2^4-yl)carbamate] was run?
**A.** The Ki was 3.8 nM.

**Q.** What about the Ki [2] of the same compound?
**A.** Its Ki is 9.2 nM.

**Q.** What does the source list for `COC(=O)Nc1ccc2c(c1)NC(=O)CCCC[C@H](NC(=O)N1CC[C@@]3(C1)OC(=O)Nc1ccc(Cl)cc13)c1nc-2c[nH]1` [Example 38, methyl ((S,Z)-9-((R)-6-chloro-2-oxo-1,2-dihydrospiro[benzo[d][1,3]oxazine-4,3′-pyrrolidine]-1′-carboxamido)-4-oxo-11H-3-aza-1(4,2)-imidazola-2(1,2)-benzenacyclononaphane-2^4-yl)carbamate]?
**A.** Ki [1]: 4.5 nM; Ki [2]: 16.1 nM

**Q.** How did the Ki [1] turn out when `COC(=O)Nc1ccc2c(c1)NC(=O)CCCCC(C(=O)N1CC[C@@]3(C1)OC(=O)Nc1ccc(Cl)c(F)c13)c1nc-2c[nH]1` (mixture of isomers) [Example 4, methyl ((Z)-9-((R)-6-chloro-5-fluoro-2-oxo-1,2-dihydrospiro[benzo[d][1,3]oxazine-4,3′-pyrrolidine]-1′-carbonyl)-4-oxo-1^1H-3-aza-1(4,2)-imidazola-2(1,2)-benzenacyclononaphane-2^4-yl)carbamate] was run?
**A.** Its Ki is 1.24 nM.

**Q.** And the Ki [2]?
**A.** Its Ki is 0.86 nM.

**Q.** What does the source list for `O=C1CCCCC(C(=O)N2CC[C@@]3(C2)OC(=O)Nc2ccc(Cl)c(F)c23)c2cc(ccn2)-c2cc3ccc(=O)[nH]c3cc2N1` (mixture of isomers) [Example 26, 3-((R)-6-chloro-5-fluoro-2-oxo-1,2-dihydrospiro[benzo[d][1,3]oxazine-4,3′-pyrrolidine]-1′-carbonyl)-1^1,1^2-dihydro-9-aza-1(6,7)-quinolina-2(4,2)-pyridinacyclononaphane-1^2,8-dione]?
**A.** Ki [1]: 1.22 nM; Ki [2]: 3.93 nM

**Q.** `COC(=O)Nc1ccc2c(c1)NC(=O)CCCC[C@@H](C(=O)N1CC[C@@]3(C1)OC(=O)Nc1ccc(Cl)cc13)c1nc-2c(Cl)[nH]1` (single isomer, unassigned) [Example 6a] was tested. Which Ki [1] did it give?
**A.** The Ki was 0.69 nM.

**Q.** And the Ki [2]?
**A.** The Ki was 0.37 nM.

**Q.** Which results are given for `COC(=O)Nc1ccc2c(c1)NC(=O)CCCC[C@H](C(=O)N1CC[C@@]3(C1)OC(=O)Nc1ccc(Cl)cc13)c1nc-2c(Cl)[nH]1` (single isomer, unassigned) [Example 6b]?
**A.** Ki [1]: 32 nM; Ki [2]: 16 nM

**Q.** Which Ki [1] does the source give for `COC(=O)Nc1ccc2c(c1)NC(=O)CCCCC[C@@H](C(=O)N1CC[C@@]3(C1)OC(=O)Nc1ccc(Cl)c(F)c13)c1cc-2ccn1` [Example 18a, methyl ((R)-10-((R)-6-chloro-5-fluoro-2-oxo-1,2-dihydrospiro[benzo[d][1,3]oxazine-4,3′-pyrrolidine]-1′-carbonyl)-4-oxo-3-aza-1(4,2)-pyridina-2(1,2)-benzenacyclodecaphane-2^4-yl)carbamate] here?
**A.** Its Ki is 3.65 nM.

**Q.** And the Ki [2]?
**A.** Its Ki is 8.6 nM.
